Test results from patent US20120083522A1, “MODULATION OF INFLAMMATORY RESPONSES BY FACTOR XI” (Isis Pharmaceuitcals, inc., priority 2009, published 2012).
In the oligonucleotide strings, read from the 5' end, every base follows the letter of its sugar. An asterisk marks phosphorothioate; unmarked linkages are phosphodiester. Other units and linkages are bracketed, terminal groups are in braces. A string of capitals states the bases alone. e = 2'-O-(2-methoxyethyl) (MOE); [5mC] = 5-methylcytosine; d = 2'-deoxy (DNA)

Tests used:
Format in all cases: cell-based
human Factor XI mRNA [1] = experiment: Antisense inhibition in HepG2 cells by microwalk gapmers, 75 nM, lipofectin (Example 3); details: HepG2 cells, 75 nM
Method: These gapmers were designed by creating gapmers shifted slightly upstream and downstream (i.e. “microwalk”) of the original gapmers from Table 3. Gapmers were also created with various motifs, e.g. 5-10-5 MOE, 3-14-3 MOE, and 2-13-5 MOE. These gapmers were tested in vitro. Cultured HepG2 cells at a density of 10,000 cells per well were transfected using lipofectin reagent with 75 nM antisense oligonucleotide. After a treatment period of approximately 24 hours, RNA was isolated from the cells and Factor XI mRNA levels were measured by quantitative real-time PCR. Factor XI mRNA levels were adjusted according to total RNA content, as measured by RIBOGREEN®. Results are presented as percent inhibition of Factor XI, relative to untreated control cells.
The chimeric antisense oligonucleotides in Table 4 were designed as 5-10-5 MOE, 3-14-3 MOE, and 2-13-5 MOE gapmers. The first listed gapmers in Table 4 are the original gapmers (see Table 3) from which the remaining gapmers were designed via microwalk and are designated by an asterisk. The 5-10-5 gapmers are 20 nucleotides in length, wherein the central gap segment is comprised of 10 2′-deoxynucleotides and is flanked on both sides (in the 5′ and 3′ directions) by wings comprising 5 nucleotides each. The 3-14-3 gapmers are 20 nucleotides in length, wherein the central gap segment is comprised of 14 2′-deoxynucleotides and is flanked on both sides (in the 5′ and 3′ directions) by wings comprising 3 nucleotides each. The 2-13-5 gapmers are 20 nucleotides in length, wherein the central gap segment is comprised of 13 2′-deoxynucleotides. The central gap is flanked on the 5′ end with a wing comprising 2 nucleotides and on the 3′ end with a wing comprising 5 nucleotides. For each of the motifs (5-10-5, 3-14-3, and 2-13-5), each nucleotide in the 5′ wing segment and each nucleotide in the 3′ wing segment has a 2′-MOE modification. The internucleoside linkages throughout each gapmer are phosphorothioate (P═S) linkages. All cytidine residues throughout each gapmer are 5-methylcytidines. “Target start site” indicates the 5′-most nucleotide to which the gapmer is targeted. “Target stop site” indicates the 3′-most nucleotide to which the gapmer is targeted. Each gapmer listed in Table 4 is targeted to SEQ ID NO: 1 (GENBANK Accession No. NM_000128.3).

human Factor XI mRNA [2] = experiment: Dose-dependent inhibition in HepG2 cells, electroporation (Example 4); details: 16 hours
Method: (§1) The gapmers were also transfected via electroporation and their dose dependent inhibition of human Factor XI mRNA was measured. Cells were plated at a density of 20,000 cells per well and transfected via electroporation with 0.7 μM, 2.2 μM, 6.7 μM, and 20 μM concentrations of antisense oligonucleotide, as specified in Table 10. After a treatment period of approximately 16 hours, RNA was isolated from the cells and Factor XI mRNA levels were measured by quantitative real-time PCR. Human Factor XI primer probe set RTS 2966 was used to measure mRNA levels. Factor XI mRNA levels were adjusted according to total RNA content, as measured by RIBOGREEN®. Results are presented as percent inhibition of Factor XI, relative to untreated control cells.

human Factor XI mRNA [3] = experiment: Dose-dependent inhibition in HepG2 cells, lipofectin (Example 4); details: 16 hours
Method: as §1, with “Cells” for “The gapmers were also transfected via electroporation and their dose dependent inhibition of human Factor XI mRNA was measured. Cells”, “10,000” for “20,000”, “using lipofectin reagent” for “via electroporation”, “9.375 nM, 18.75 nM, 37.5 nM” for “0.7 μM, 2.2 μM, 6.7 μM,”, “75 nM” for “20 μM”, “9.” for “10.”

[4] = oligonucleotides targeted to nucleobases 738 to 762 of SEQ ID NO: 1
[5] = oligonucleotides targeted to nucleobases 1018 to 1042 of SEQ ID NO: 1

412215 (antisense eA*eT*eT*e[5mC]*eT*dT*dT*dG*dG*dG*d[5mC]*d[5mC]*dA*dT*dT*e[5mC]*e[5mC]*eT*eG*eG) [compound 412215]
% inhibition of human Factor XI mRNA levels (human Factor XI mRNA [1]; oligonucleotides targeted to nucleobases 1062 to 1091 of SEQ ID NO: 1): 82%

416827 (antisense eT*eA*eT*eG*e[5mC]*d[5mC]*d[5mC]*dT*dT*d[5mC]*dA*dT*dG*dT*d[5mC]*eT*eA*eG*eG*eT) [compound 416827]
percent inhibition of Factor XI mRNA, relative to untreated control cells (human Factor XI mRNA [2]; 0.7 μM): 37% | percent inhibition of Factor XI mRNA, relative to untreated control cells (human Factor XI mRNA [2]; 2.2 μM): 68% | percent inhibition of Factor XI mRNA, relative to untreated control cells (human Factor XI mRNA [2]; 6.7 μM): 87% | percent inhibition of Factor XI mRNA, relative to untreated control cells (human Factor XI mRNA [2]; 20 μM): 92% | percent inhibition of Factor XI mRNA, relative to untreated control cells (human Factor XI mRNA [3]; 9.375 nM): 31% | percent inhibition of Factor XI mRNA, relative to untreated control cells (human Factor XI mRNA [3]; 18.75 nM): 42% | percent inhibition of Factor XI mRNA, relative to untreated control cells (human Factor XI mRNA [3]; 37.5 nM): 62% | percent inhibition of Factor XI mRNA, relative to untreated control cells (human Factor XI mRNA [3]; 75 nM): 77%

416830 (antisense eT*e[5mC]*e[5mC]*eG*eT*dG*d[5mC]*dA*dT*d[5mC]*dT*dT*dT*d[5mC]*dT*eT*eG*eG*e[5mC]*eA) [compound 416830]
% inhibition of human Factor XI mRNA levels (human Factor XI mRNA [1]; [4]): 81%

416831 (antisense eA*eT*e[5mC]*e[5mC]*eG*dT*dG*d[5mC]*dA*dT*d[5mC]*dT*dT*dT*d[5mC]*eT*eT*eG*eG*e[5mC]) [compound 416831]
% inhibition of human Factor XI mRNA levels (human Factor XI mRNA [1]; [4]): 91%

416832 (antisense e[5mC]*eA*eT*e[5mC]*e[5mC]*dG*dT*dG*d[5mC]*dA*dT*d[5mC]*dT*dT*dT*e[5mC]*eT*eT*eG*eG) [compound 416832]
% inhibition of human Factor XI mRNA levels (human Factor XI mRNA [1]; [4]): 79%

416833 (antisense eT*e[5mC]*eA*eT*e[5mC]*d[5mC]*dG*dT*dG*d[5mC]*dA*dT*d[5mC]*dT*dT*eT*e[5mC]*eT*eT*eG) [compound 416833]
% inhibition of human Factor XI mRNA levels (human Factor XI mRNA [1]; [4]): 65%

416834 (antisense eG*eT*e[5mC]*eA*eT*d[5mC]*d[5mC]*dG*dT*dG*d[5mC]*dA*dT*d[5mC]*dT*eT*eT*e[5mC]*eT*eT) [compound 416834]
% inhibition of human Factor XI mRNA levels (human Factor XI mRNA [1]; [4]): 58%

416835 (antisense eA*e[5mC]*e[5mC]*eG*eG*dG*dA*dT*dG*dA*dT*dG*dA*dG*dT*eG*e[5mC]*eA*eG*eA) [compound 416835]
% inhibition of human Factor XI mRNA levels (human Factor XI mRNA [1]; [5]): 83%

416836 (antisense eA*eA*e[5mC]*e[5mC]*eG*dG*dG*dA*dT*dG*dA*dT*dG*dA*dG*eT*eG*e[5mC]*eA*eG) [compound 416836]
% inhibition of human Factor XI mRNA levels (human Factor XI mRNA [1]; [5]): 89%

416837 (antisense e[5mC]*eA*eA*e[5mC]*e[5mC]*dG*dG*dG*dA*dT*dG*dA*dT*dG*dA*eG*eT*eG*e[5mC]*eA) [compound 416837]
% inhibition of human Factor XI mRNA levels (human Factor XI mRNA [1]; [5]): 90%
